Data as given in US20220274979A1 (Bayer Pharma Aktiengesellschaft, priority 2018, published 2022).
Read-outs that look alike come from different tables or passages of the source.

Experiments:
[1] = target: T1, hK-RasG12C - hSOS1 interaction (Homo sapiens, UniProt Q07889); assay: Biochemical Assay 1: hK-RasG12C interaction assay with hSOS1 (HTRF); type: binding; settings: for inhibition at 20 µM: read-out: Assay 1 (hKRAS, hSOS Interaction) activity (expressed as IC50, or as % inhibition at 20 μM)
T1 construct: hSOS1 (amino acid 564-1049); made in house; host or cells: E. coli BL21 (DE3)
T1 sequence (Q07889 with tags, fused parts or gaps): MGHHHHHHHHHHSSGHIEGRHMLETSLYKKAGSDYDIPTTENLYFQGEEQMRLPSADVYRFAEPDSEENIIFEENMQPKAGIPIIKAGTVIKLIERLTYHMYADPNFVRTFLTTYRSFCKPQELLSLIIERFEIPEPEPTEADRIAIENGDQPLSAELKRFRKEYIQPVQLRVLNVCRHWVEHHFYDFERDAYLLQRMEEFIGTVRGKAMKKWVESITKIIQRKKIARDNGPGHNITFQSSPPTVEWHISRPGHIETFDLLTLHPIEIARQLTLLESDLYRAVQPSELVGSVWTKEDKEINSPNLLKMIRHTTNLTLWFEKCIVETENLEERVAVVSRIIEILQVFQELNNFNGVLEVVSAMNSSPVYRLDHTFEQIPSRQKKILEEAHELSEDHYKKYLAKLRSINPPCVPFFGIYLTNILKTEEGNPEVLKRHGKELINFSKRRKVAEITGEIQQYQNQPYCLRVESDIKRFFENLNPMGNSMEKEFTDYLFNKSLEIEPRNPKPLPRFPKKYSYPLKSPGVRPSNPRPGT
Protocol: Biochemical Assay 1: hK-RasG12C Interaction Assay with hSOS1
This assay quantifies the equilibrium interaction of human SOS1 (hSOS1) with human K-Ras^G12C (hK-RasG12C). Detection of the interaction is achieved by measuring homogenous time-resolved fluorescence resonance energy transfer (HTRF) from antiGST-Europium (FRET donor) bound to GST-K-RasG12C to anti-6His-XL665 bound to His-tagged hSOS1 (FRET-acceptor).
The assay buffer contained 5 mM HEPES pH 7.4 (Applichem), 150 mM NaCl (Sigma), 10 mM EDTA (Promega), 1 mM DTT (Thermofisher), 0.05% BSA Fraction V, pH 7.0, (ICN Biomedicals), 0.0025% (v/v) Igepal (Sigma) and 100 mM KF (FLUKA).
Concentrations of protein batches used were optimized to be within the linear range of the HTRF signal. A Ras working solution was prepared in assay buffer containing typically 10 nM GST-hK-RasG12C and 2 nM antiGST-Eu(K) (Cisbio, France). A SOS1 working solution was prepared in assay buffer containing typically 20 nM His-hSOS1 and 10 nM anti-6His-XL665 (Cisbio, France). An inhibitor control solution was prepared in assay buffer containing 10 nM anti-6His-XL665 without hSOS1.
(§1) Fifty nl of a 100-fold concentrated solution of the test compound in DMSO were transferred into a black microtiter test plate (384 or 1536, Greiner Bio-One, Germany) For this, either a Hummingbird liquid handler (Digilab, Mass., USA) or an Echo acoustic system (Labcyte, Calif., USA) was used.
(§2) All steps of the assay were performed at 20° C. A volume of 2.5 μl of the Ras working solution was added to all wells of the test plate using a Multidrop dispenser (Thermo Labsystems). After 2 mM preincubation, 2.5 μl of the SOS1 working solution were added to all wells except for those wells at the side of the test plate that were subsequently filled with 2.5 μl of the inhibitor control solution. After 60 mM incubation the fluorescence was measured with a Pherastar (BMG, Germany) using the HTRF module (excitation 337 nm, emission 1:620 nm, emission 2:665 nm).
(§3) IC50 values were calculated by 4-Parameter fitting using a commercial software package (Genedata Screener, Switzerland).

[2] = target: T2, hSOS1 (hSOS1-mediated nucleotide exchange of hK-RasG12C) (Homo sapiens, UniProt Q07889); assay: Biochemical Assay 2: hK-RasG12C activation assay by hSOS1 at high GTP concentration (HTRF nucleotide exchange); settings: high GTP (50 μM GTP)
T2 construct: hSOS1 (amino acid 564-1049); made in house; host or cells: E. coli BL21 (DE3)
T2 sequence (Q07889 with tags, fused parts or gaps): T1 sequence (Q07889 with tags, fused parts or gaps)
Source text: Biochemical Assay 2: hK-RasG12C Activation Assay by hSOS1 at High GTP Concentration
This assay quantifies human SOS1-mediated nucleotide exchange of human K-Ras^G12C (hK-RasG12C) preloaded with a fluorescent […] and in presence of an excess of free GTP. Loaded hK-RasG12C generates a high HTRF-signal by energy transfer from antiGST-Terbium (FRET donor) bound to hK-Ras to the loaded fluorescent GDP analog (FRET-acceptor). hSOS1 activity exchanges the fluorescent GDP for non-fluorescent GTP and therefore leads to a reduction of the HTRF signal.
The fluorescent GDP-analog EDA-GDP-Dy647P1 (2′/3′-O-(2-Aminoethyl-carbamoyl)-guanosine-5′-diphosphate labelled with Dy647P1 (Dyomics GmbH, Germany)) was synthesized by Jena Biosciences GmbH (Germany) and supplied as a 1 mM aqueous solution.
Concentrations of protein batches used were optimized to be within the linear range of the HTRF signal.
Addition of 20 μl 1 M MgCl2 (Sigma) to final 40 mM and store on ice. Purification into buffer (10 mM HEPES pH 7.4 (Applichem), 150 mM NaCl (Sigma), 5 mM MgCl2 (Sigma)) by use of a PD-Minitrap desalting column (GE Healthcare). Concentration of 1 ml purified hK-Ras-GDP-Dy647 is approx. 4-5 μM.
The assay buffer contained 10 mM HEPES pH 7.4 (Applichem), 150 mM NaCl (Sigma), 5 mM MgCl2 (Sigma), 1 mM DTT (Thermofisher), 0.05% BSA Fraction V, pH 7.0, (ICN Biomedicals), 0.0025% (v/v) Igepal (Sigma).
A Ras working solution was prepared in assay buffer containing typically 80 nM loaded GST-hK-RasG12C-EDA-GDP-Dy647P1 and 2 nM antiGST-Tb (Cisbio, France).
Alternatively, the inhibitor control solution was prepared by supplementing the hSOS1 working solution with 20 μM of 6,7-dimethoxy-N-[(1R)-1-(1-naphthyl)ethyl]quinazolin-4-amine which was used to calibrate the assay.
as §1
as §2, with “min.” for “mM”, “hSOS1” for “SOS1”, “20 min.” for “60 mM”
as §3

SMILES | IC50 ([1]; values expressed as IC50) [nM] | IC50 [2] [nM] | IC50 [1] [nM] | inhibition at 20 µM [1] [%]
CC(=O)NC1CCN(c2cc3c(N[C@H](C)c4cccc(Br)c4)nc(C)nc3cn2)C1 (mixture of isomers) [Example 42, N-[1-(4-{[(1R)-1-(3-bromophenyl)ethyl]amino}-2-methylpyrido[3,4-d]pyrimidin-6-yl)pyrrolidin-3-yl]acetamide] | 187 | 215 | – | –
Cc1nc(NC(C)c2ccc(-c3ccccc3CN(C)C)s2)c2cc(C3CCN(C)C3=O)ncc2n1 (mixture of isomers) [Example 69, 3-(4-{[1-(5-{2-[(dimethylamino)methyl]phenyl}thiophen-2-yl)ethyl]amino}-2-methylpyrido[3,4-d]pyrimidin-6-yl)-1-methylpyrrolidin-2-one] | 62.6 | 98.3 | – | –
Cc1nc(NC(C)c2ccc(-c3ccccc3CN(C)C)s2)c2cc(C3(O)CCN(C)C3=O)ncc2n1 (mixture of isomers) [Example 85, 3-(4-{[1-(5-{2-[(dimethylamino)methyl]phenyl}thiophen-2-yl)ethyl]amino}-2-methylpyrido[3,4-d]pyrimidin-6-yl)-3-hydroxy-1-methylpyrrolidin-2-one] | – | 214 | 83.4 | –
CCOc1cc2c(NC(C)c3cccc4sccc34)nc(C)nc2cn1 (stereo not shown) [Example 3, N-[1-(1-benzothiophen-4-yl)ethyl]-6-ethoxy-2-methylpyrido[3,4-d]pyrimidin-4-amine] | 215 | 262 | – | –
COc1cc2c(NC(C)c3cccc4sccc34)nc(C)nc2cn1 (stereo not shown) [Example 4, N-[1-(1-benzothiophen-4-yl)ethyl]-6-methoxy-2-methylpyrido[3,4-d]pyrimidin-4-amine] | 355 | 423 | – | –
CCOc1cc2c(N[C@H](C)c3cccc(Br)c3)nc(C)nc2cn1 [Example 5, N-[(1R)-1-(3-bromophenyl)ethyl]-6-ethoxy-2-methylpyrido[3,4-d]pyrimidin-4-amine] | 491 | 994 | – | –
CCOc1cc2c(N[C@H](C)c3cccc(Cl)c3)nc(C)nc2cn1 [Example 6] | 393 | 1120 | – | –
CCOc1cc2c(N[C@H](C)c3cccc(S(C)(=O)=O)c3)nc(C)nc2cn1 [Example 7, 6-ethoxy-2-methyl-N-{(1R)-1-[3-(methylsulfonyl)phenyl]ethyl}pyrido[3,4-d]pyrimidin-4-amine] | 633 | 1300 | – | –
COc1cc2c(N[C@H](C)c3ccc(F)c(Cl)c3)nc(C)nc2cn1 [Example 8] | 5490 | 4890 | – | –
Cc1nc(N[C@H](C)c2ccc(F)cc2)c2cc(F)ncc2n1 [Example 9] | – | 17900 | – | 54
Cc1nc(N[C@H](C)c2ccc(F)cc2)c2cc(OCC3CCOCC3)ncc2n1 [Example 11, N-[1R)-1-(4-fluorophenypethyl]-2-methyl-6-(tetrahydro-2H-pyran-4-ylmethoxy)-pyrido[3,4-d]pyrimidin-4-amine] | 1790 | 1960 | – | –
COc1cc2c(N[C@H](C)c3ccc(F)c(C4CC4)c3)nc(C)nc2cn1 [Example 12] | 5840 | 6450 | – | –
CCOc1cc2c(N[C@H](C)c3ccc(Br)cc3)nc(C)nc2cn1 [Example 13, N-[(1R)-1-(4-bromophenyl)ethyl]-6-ethoxy-2-methylpyrido[3,4-d]pyrimidin-4-amine] | 1220 | 1780 | – | –
COc1cc2c(NC(C)c3cccc4c3cnn4C)nc(C)nc2cn1 (stereo not shown) [Example 14, 6-methoxy-2-methyl-N-[1-(1-methyl-1H-indazol-4-yl)ethyl]pyrido[3,4-d]pyrimidin-4-amine] | 1650 | 1950 | – | –
Cc1nc(N[C@H](C)c2ccc(F)cc2)c2cc(OC(C)C)ncc2n1 [Example 15] | 1480 | 1900 | – | –
COc1cc2c(NC(C)c3cccc4nn(C)cc34)nc(C)nc2cn1 (stereo not shown) [Example 17, 6-methoxy-2-methyl-N-[1-(2-methyl-2H-indazol-4-yl)ethyl]pyrido[3,4-d]pyrimidin-4-amine] | 9190 | 7730 | – | –
CCOc1cc2c(N[C@H](C)c3ccc(C#N)cc3)nc(C)nc2cn1 [Example 18, 4-{(1R)-1-[(6-ethoxy-2-methylpyrido[3,4-d]pyrimidin-4-yl)amino]ethyl}benzonitrile] | 1110 | 1010 | – | –
Cc1nc(N[C@H](C)c2cccc(Br)c2)c2nc(OCc3ccccc3)ncc2n1 [Example 20, 6-(benzyloxy)-N-[(1R)-1-(3-bromophenyl)ethyl]-2-methylpyrimido[5,4-d]pyrimidin-4-amine] | – | > 20000 | – | 30
Cc1nc(N[C@H](C)c2cccc(Br)c2)c2nc(N(C)C)ncc2n1 [Example 21] | – | > 20000 | – | 26.3
Cc1nc(N[C@H](C)c2cccc(Br)c2)c2nc(N3CCOCC3)ncc2n1 [Example 22, N-[(1R)-1-(3-bromophenyl)ethyl]-2-methyl-6-(morpholin-4-yl)pyrimido[5,4-d]pyrimidin-4-amine] | 1620 | 1960 | – | –
CCOc1ncc2nc(C)nc(N[C@H](C)c3cccc(Br)c3)c2n1 [Example 23, N-[(1R)-1-(3-bromophenyl)ethyl]-6-ethoxy-2-methylpyrimido[5,4-d]pyrimidin-4-amine] | 4350 | 4450 | – | –
COc1ncc2nc(C)nc(N[C@H](C)c3cccc(Br)c3)c2n1 [Example 24, N-[(1R)-1-(3-bromophenyl)ethyl]-6-methoxy-2-methylpyrimido[5,4-d]pyrimidin-4-amine] | 9410 | 9710 | – | –
Cc1nc(N[C@H](C)c2cccc(Br)c2)c2nc(Oc3ccccc3)ncc2n1 [Example 25, N-[(1R)-1-(3-bromophenyl)ethyl]-2-methyl-6-phenoxypyrimido[5,4-d]pyrimidin-4-amine] | – | > 20000 | – | 23.7
